Test results: ChEMBL document CHEMBL5634182, “Antifungal Pseuboyenes A-J, Bergamotene-Derived Sesquiterpenoids from a Cold-Seep-Derived Pseudallescheria boydii” (J Nat Prod, 2024)

What was measured:
[1] = test system: Alternaria brassicae; assay: Antifungal activity against Alternaria brassicae QDAU-16 assessed as reduction in microbial growth by broth microdilution method; assay type: functional
[2] = test system: Ceratobasidium cornigerum; assay: Antifungal activity against Ceratobasidium cornigerum QDAU-6 assessed as reduction in microbial growth by broth microdilution method; assay type: functional
[3] = test system: Coniella diplodiella; assay: Antifungal activity against Coniothyrium diplodiella QDAU-7 assessed as reduction in microbial growth by broth microdilution method; assay type: functional
[4] = test system: Colletotrichum gloeosporioides; assay: Antifungal activity against Colletotrichum gloeosporioides QDAU-2 assessed as reduction in microbial growth by broth microdilution method; assay type: functional
[5] = test system: Colletotrichum gloeosporioides; assay: Antifungal activity against Colletotrichum gloeosporioides QDAU-17 assessed as reduction in microbial growth by broth microdilution method; assay type: functional
[6] = test system: Curvularia spicifera; assay: Antifungal activity against Curvularia spicifera QDAU-18 assessed as reduction in microbial growth by broth microdilution method; assay type: functional
[7] = test system: Fusarium graminearum; assay: Antifungal activity against Fusarium graminearum QDAU-4 assessed as reduction in microbial growth by broth microdilution method; assay type: functional
[8] = test system: Fusarium oxysporum; assay: Antifungal activity against Fusarium oxysporum QDAU-8 assessed as reduction in microbial growth by broth microdilution method; assay type: functional
[9] = test system: Fusarium proliferatum; assay: Antifungal activity against Fusarium proliferatum QDAU-19 assessed as reduction in microbial growth by broth microdilution method; assay type: functional
[10] = test system: Penicillium digitatum; assay: Antifungal activity against Penicillium digitatum QDAU-14 assessed as reduction in microbial growth by broth microdilution method; assay type: functional
[11] = test system: Botryosphaeria berengeriana; assay: Antifungal activity against Physalospora piricola QDAU-15 assessed as reduction in microbial growth by broth microdilution method; assay type: functional
[12] = test system: Fusarium proliferatum; assay: Antifungal activity against Fusarium proliferatum assessed as reduction in microbial growth measured after 72 hrs; assay type: functional, organism-based
[13] = test system: MKN-45; assay: Cytotoxicity against human MKN-45 cells assessed as reduction in cell viability at 20 uM; assay type: functional, cell-based
[14] = test system: A549; assay: Cytotoxicity against human A549 cells assessed as reduction in cell viability at 20 uM; assay type: functional, cell-based
[15] = test system: HCT-116; assay: Cytotoxicity against human HCT-116 cells assessed as reduction in cell viability at 20 uM; assay type: functional, cell-based
[16] = test system: HeLa; assay: Cytotoxicity against human HeLa cells assessed as reduction in cell viability at 20 uM; assay type: functional, cell-based
[17] = test system: K562; assay: Cytotoxicity against human K562 cells assessed as reduction in cell viability at 20 uM; assay type: functional, cell-based
[18] = test system: 786-0; assay: Cytotoxicity against human 786-0 cells assessed as reduction in cell viability at 20 uM; assay type: functional, cell-based
[19] = test system: TE-1; assay: Cytotoxicity against human TE-1 cells assessed as reduction in cell viability at 20 uM; assay type: functional, cell-based
[20] = test system: 5637; assay: Cytotoxicity against human 5637 cells assessed as reduction in cell viability at 20 uM; assay type: functional, cell-based
[21] = test system: GBC-SD; assay: Cytotoxicity against human GBC-SD cells assessed as reduction in cell viability at 20 uM; assay type: functional, cell-based
[22] = test system: L02; assay: Cytotoxicity against human L02 cells assessed as reduction in cell viability at 20 uM; assay type: functional, cell-based
[23] = test system: MCF7; assay: Cytotoxicity against human MCF7 cells assessed as reduction in cell viability at 20 uM; assay type: functional, cell-based
[24] = test system: HepG2; assay: Cytotoxicity against human HepG2 cells assessed as reduction in cell viability at 20 uM; assay type: functional, cell-based
[25] = test system: SF-126; assay: Cytotoxicity against human SF-126 cells assessed as reduction in cell viability at 20 uM; assay type: functional, cell-based
[26] = test system: DU-145; assay: Cytotoxicity against human DU-145 cells assessed as reduction in cell viability at 20 uM; assay type: functional, cell-based
[27] = test system: CAL-62; assay: Cytotoxicity against human CAL-62 cells assessed as reduction in cell viability at 20 uM; assay type: functional, cell-based
[28] = test system: PaTu 8988t; assay: Cytotoxicity against human PaTu 8988t cells assessed as reduction in cell viability at 20 uM; assay type: functional, cell-based
[29] = test system: HOS; assay: Cytotoxicity against human HOS cells assessed as reduction in cell viability at 20 uM; assay type: functional, cell-based
[30] = test system: A-375; assay: Cytotoxicity against human A-375 cells assessed as reduction in cell viability at 20 uM; assay type: functional, cell-based
[31] = test system: A673; assay: Cytotoxicity against human A673 cells assessed as reduction in cell viability at 20 uM; assay type: functional, cell-based
[32] = test system: HEK-293T; assay: Cytotoxicity against human HEK293T cells assessed as reduction in cell viability at 20 uM; assay type: toxicity, cell-based

C=C1CC[C@@]2(O)C[C@@H]1[C@]2(C)[C@@H](/C=C/C(C)(C)O)OC(C)=O
2 µg/mL: MIC [6] | MIC [8]
inactive: Activity [13] Not toxic | Activity [14] Not toxic | Activity [15] Not toxic | Activity [16] Not toxic | Activity [17] Not toxic | Activity [18] Not toxic | Activity [19] Not toxic | Activity [20] Not toxic | Activity [21] Not toxic | Activity [22] Not toxic | Activity [23] Not toxic | Activity [24] Not toxic | Activity [25] Not toxic | Activity [26] Not toxic | Activity [27] Not toxic | Activity [28] Not toxic | Activity [29] Not toxic | Activity [30] Not toxic | Activity [31] Not toxic
1 µg/mL: EC50 [12]
active: Activity ([12]; dose <= 100.0 µg/ml) Dose-Dependent Effect
4 µg/mL: MIC [2] | MIC [4] | MIC [7] | MIC [10]
Non-Toxic: Activity [32]
0.5 µg/mL: MIC [1] | MIC [3] | MIC [9]
8 µg/mL: MIC [5] | MIC [11]
